The values below are quoted from earlier work in US5591773A, “Inhibition of cataract formation, diseases resulting from oxidative stress, and HIV replication by caffeic acid esters” (priority 1994, dated 1997).

The structures appear in SMILES notation.

Data set [1] concerns bovine lens (H2O2). Particulars: cited from earlier work.
For data set [2], the system named is bovine lens (opacity). The settings on record: cited from earlier work.
Data set [3] concerns tumor promotion. The settings on record: cited from earlier work.
Data set [4] concerns HeLa cells. The settings on record: cited from earlier work.
Data set [5] relates to mammalian cells. The settings on record: cited from earlier work.
Data set [6] concerns TPA-induced oxidative processes (PMN infiltration, reactive oxygen species generation, DNA base oxidation). Particulars: sarcophytol A 6.5 nmol, TPA 6.5 nmol/treatment; cited from earlier work.

For the compound `O=C(O[C@@H]1Cc2c(O)cc(O)cc2O[C@@H]1c1cc(O)c(O)c(O)c1)c1cc(O)c(O)c(O)c1` [EGCG, (-)-epigallocatechin gallate], the “inhibition of TPA-mediated H2O2 production, lens (in words)” value in data set [1] is recorded as “effective inhibitors”. Moreover, the “inhibition of TPA-mediated lens opacification (in words)” value in data set [2] was “effective inhibitors”. Further, the “anti-tumor promoting properties (in words)” value in data set [3] is “known anti-tumor promoters”. In addition, the “inhibition of TPA-induced oxidative processes (in words)” value in data set [4] (EGCG 50 nmol) is reported as “less effective inhibition of TPA-induced oxidative processes”. Moreover, the “HMdUrd and 8-OHdGua levels (in words)” value in data set [4] (EGCG 5-25 nmol preincubation, TPA) was “contained lower levels of HMdUrd and 8-OHdGua than cells treated only with TPA”.

For `O=c1[nH]c(=O)n([C@H]2C[C@H](O)[C@@H](CO)O2)cc1CO` [HMdUrd, 5-hydroxymethyl-2'-deoxyuridine], in data set [5], the “cytotoxicity and mutagenicity (in words)” value is “cytotoxic and cytostatic to a number of mammalian cells and is mutagenic”.

Take `O=C(O)/C=C/c1ccc(O)c(O)c1` [caffeic acid]: the “anti-tumor promoting properties (in words)” value in data set [3] is “known anti-tumor promoters”.

For the compound `COc1cc(/C=C/C(=O)CC(=O)/C=C/c2ccc(O)c(OC)c2)ccc1O` [curcumin], the “anti-tumor promoting properties (in words)” value in data set [3] is given as “known anti-tumor promoters”.

As for `C/C1=C\C=C(\C(C)C)[C@@H](O)C/C(C)=C/CC/C(C)=C/CC1` [sarcophytol A], in data set [6], the “inhibition of TPA-induced oxidative processes (in words)” value was “potent inhibitor”. Besides, the “inhibition of TPA-mediated H2O2 production, lens (in words)” value in data set [1] was “effective inhibitors”. In addition, in data set [2], the “inhibition of TPA-mediated lens opacification (in words)” value is recorded as “effective inhibitors”. Besides, the “anti-tumor promoting properties (in words)” value in data set [3] is reported as “known anti-tumor promoters”.
